What is called IC50 is the concentration that inhibits the measured activity by half. A lower IC50 goes with greater potency.

The target of the test is ERα (Homo sapiens (Human), UniProt P03372). The test is described as follows: Estrogen receptor degradation activity: breast cancer cell ERα in cell western assay. The format is cell-based. The conditions noted are these: MCF7 cells; for % Degradation At 0.3 μM: 4 hours, normalised to fulvestrant 0.1 μM and DMSO; for IC50 / DC50: 4 hours post compound addition, concentration which degrades 50% of the estrogen receptor; for DC50: read-out: Degradation IC50. The method, then:
Said test involves measuring the in vitro degradation activity of the compounds of the Table 1a.
The measurements of the degradation activities were made using a breast cancer cell ERα in cell western assay as described hereunder.
MCF7 cells (ATCC) were seeded in 384 wells microplate (collagen coated) at a concentration of 10000 cells/30 μL per well in red phenol free MEM alpha medium (invitrogen) containing 5% charcoal dextran striped FBS. The following day, 9 points serial 1:5 dilution of each compound was added to the cells in 2.5 μL at final concentrations ranging from 0.3-0.0000018 μM (in table 2), or 0.1 μM for fulvestrant (using as positive control). At 4 hours post compound addition the cells were fixed by adding 25 μL of formalin (final concentration 5% formalin containing 0.1% triton) for 10 minutes at room temperature and then washed twice with PBS. Then, 50 μL of LI-COR blocking buffer containing 0.1% Triton was added to plate for 30 minutes at room temperature. LI-COR blocking buffer was removed and cells were incubated overnight at cold room with 50 μL anti-ER rabbit monoclonal antibody (Thermo scientific MA1-39540) diluted at 1:1000 in LI-COR blocking buffer containing 0.1% tween-20. Wells which were treated with blocking buffer but no antibody were used as background control. Wells were washed twice with PBS (0.1% tween-20) and incubated at 37° C. for 60 minutes in LI-COR (0.1% tween-20) containing goat anti-rabbit antibody Alexa 488 (1:1000) and Syto-64 a DNA dye (2 μM final concentration). Cells were then washed 3 times in PBS and scanned in ACUMEN explorer (TTP-Labtech). Integrated intensities in the green fluorescence and red fluorescence were measured to determine the levels of ERα and DNA respectively.
The degradation activity with respect to estrogen receptors in this test is given by the concentration which degrades 50% of the estrogen receptor (or IC50) in nM.
The % of ERα levels decrease were determined as follows: % inhibition=100*(1−(sample−fulvestrant:DMSO−fulvestrant)).

Sequence of ERα (P03372 whole entry): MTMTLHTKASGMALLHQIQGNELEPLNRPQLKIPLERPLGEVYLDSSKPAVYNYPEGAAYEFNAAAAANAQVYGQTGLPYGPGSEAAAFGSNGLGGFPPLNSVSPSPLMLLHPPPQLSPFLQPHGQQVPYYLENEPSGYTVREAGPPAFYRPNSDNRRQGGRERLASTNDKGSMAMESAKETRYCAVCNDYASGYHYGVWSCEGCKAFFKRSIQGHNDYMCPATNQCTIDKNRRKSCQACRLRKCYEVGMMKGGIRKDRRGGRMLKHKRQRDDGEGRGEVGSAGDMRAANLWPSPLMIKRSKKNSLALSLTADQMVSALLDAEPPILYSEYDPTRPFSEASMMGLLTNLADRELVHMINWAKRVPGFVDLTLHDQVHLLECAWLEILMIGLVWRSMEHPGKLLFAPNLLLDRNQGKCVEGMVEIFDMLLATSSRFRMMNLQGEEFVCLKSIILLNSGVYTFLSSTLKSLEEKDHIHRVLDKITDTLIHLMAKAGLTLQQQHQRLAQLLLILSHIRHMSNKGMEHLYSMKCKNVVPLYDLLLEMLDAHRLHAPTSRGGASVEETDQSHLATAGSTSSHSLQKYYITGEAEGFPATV

`O=C(O)c1ccc2c(c1)CCCC(c1ccc(C(F)F)cc1)=C2c1ccc(C=C2CN(CCCF)C2)cc1` [Compound 55, 8-(4-(difluoromethyl)phenyl)-9-(4-((1-(3-fluoropropyl)azetidin-3-ylidene)methyl)phenyl)-6,7-dihydro-5H-benzo[7]annulene-3-carboxylic acid]: the “% Degradation At 0.3 μM” value was determined as 94% and the half-maximal inhibitory concentration (IC50) is 0.6 nM.
In the case of `O=C(O)c1ccc2c(c1)CCCC(c1cccc(C(F)(F)F)c1C(F)(F)F)=C2c1ccc(C=C2CN(CCCF)C2)cc1` [Compound 79, 8-(2,3-bis(trifluoromethyl)phenyl)-9-(4-((1-(3-fluoropropyl)azetidin-3-ylidene)methyl)phenyl)-6,7-dihydro-5H-benzo[7]annulene-3-carboxylic acid], the “% Degradation At 0.3 μM” value turned out to be 100% and the midpoint of inhibition, the IC50, lay at 0.4 nM.
Take `Cc1cc(C2=C(c3ccc(C=C4CN(CCCF)C4)cc3)c3ccc(C(=O)O)cc3CCC2)c(C)cc1F` [Compound 27, 8-(4-fluoro-2,5-dimethylphenyl)-9-(4-((1-(3-fluoropropyl)azetidin-3-ylidene)methyl)phenyl)-6,7-dihydro-5H-benzo[7]annulene-3-carboxylic acid]: the “% Degradation At 0.3 μM” value is on record as 93% and half-maximal inhibition (IC50) was put at 0.5 nM.
On the same counts, the results for `COc1cc(Cl)cc(C)c1C1=C(c2ccc(C=C3CN(CCCF)C3)cc2)c2ccc(C(=O)O)cc2CCC1` [Compound 83, 8-(4-chloro-2-methoxy-6-methylphenyl)-9-(4-((1-(3-fluoropropyl)azetidin-3-ylidene)methyl)phenyl)-6,7-dihydro-5H-benzo[7]annulene-3-carboxylic acid] are 94% and 0.4 nM.
On the same counts, the results for `COc1ccc(C2=C(c3ccc(C=C4CN(CCCF)C4)cc3)c3ccc(C(=O)O)cc3CCC2)c(C(F)F)c1` [Compound 37, 8-(2-(difluoromethyl)-4-methoxyphenyl)-9-(4-((1-(3-fluoropropyl)azetidin-3-ylidene)methyl)phenyl)-6,7-dihydro-5H-benzo[7]annulene-3-carboxylic acid] are 91% and 0.6 nM.
The matching figures for `CC1(C)CCC(C2=C(c3ncc(C=C4CN(CCCF)C4)cc3F)c3ccc(C(=O)O)cc3CCC2)CC1` [Compound 65, 8-(4,4-dimethylcyclohexyl)-9-(3-fluoro-5-((1-(3-fluoropropyl)azetidin-3-ylidene)methyl)pyridin-2-yl)-6,7-dihydro-5H-benzo[7]annulene-3-carboxylic acid]: 91% and 0.8 nM.
`Cc1cc(C)c(C2=C(c3ccc(C=C4CN(CCCF)C4)cc3)c3ccc(C(=O)O)cc3CCC2)c(Cl)c1` [Compound 11, 8-(2-chloro-4,6-dimethylphenyl)-9-(4-((1-(3-fluoropropyl)azetidin-3-ylidene)methyl)phenyl)-6,7-dihydro-5H-benzo[7]annulene-3-carboxylic acid]: the “% Degradation At 0.3 μM” value is 92% and it took 0.4 nM to reach half-maximal inhibition (IC50).
On the same counts, the results for `Cc1cc(C2=C(c3ccc(C=C4CN(CCCF)C4)cc3)c3ccc(C(=O)O)cc3CCC2)ccc1C(F)(F)F` [Compound 53, 9-(4-((1-(3-fluoropropyl)azetidin-3-ylidene)methyl)phenyl)-8-(3-methyl-4-(trifluoromethyl)phenyl)-6,7-dihydro-5H-benzo[7]annulene-3-carboxylic acid] are 91% and 1.2 nM.
On the same counts, the results for `C[C@H]1CC[C@@H](C2=C(c3ccc(C=C4CN(CCCF)C4)cc3)c3ccc(C(=O)O)cc3CCC2)CC1` [Compound 61, 9-(4-((1-(3-fluoropropyl)azetidin-3-ylidene)methyl)phenyl)-8-(cis-4-methylcyclohexyl)-6,7-dihydro-5H-benzo[7]annulene-3-carboxylic acid] are 91% and 0.9 nM.
In the case of `Cc1cccc(F)c1C1=C(c2ccc(C=C3CN(CCCF)C3)cc2)c2ccc(C(=O)O)cc2CCC1` [Compound 26, 8-(2-fluoro-6-methylphenyl)-9-(4-((1-(3-fluoropropyl)azetidin-3-ylidene)methyl)phenyl)-6,7-dihydro-5H-benzo[7]annulene-3-carboxylic acid], the “% Degradation At 0.3 μM” value worked out at 91% and the IC50 came to 0.2 nM.
Regarding `CCc1cc(C)cc(CC)c1C1=C(c2ccc(C=C3CN(CCCF)C3)cc2)c2ccc(C(=O)O)cc2CCC1` [Compound 80, 8-(2,6-diethyl-4-methylphenyl)-9-(4-((1-(3-fluoropropyl)azetidin-3-ylidene)methyl)phenyl)-6,7-dihydro-5H-benzo[7]annulene-3-carboxylic acid], the “% Degradation At 0.3 μM” value stood at 105% and it took 1.2 nM to reach half-maximal inhibition (IC50).
`O=C(O)c1ccc2c(c1)CCCC(c1ccc(Cl)cc1Cl)=C2c1ccc(C=C2CN(CC(F)CF)C2)cc1` (single isomer, unassigned) [Compound 70, 8-(2,4-dichlorophenyl)-9-(4-((1-(2,3-difluoropropyl)azetidin-3-ylidene)methyl)phenyl)-6,7-dihydro-5H-benzo[7]annulene-3-carboxylic acid]: the “% Degradation At 0.3 μM” value was 81% and the DC50 came out at 1.8 nM.
With `O=C(O)c1ccc2c(c1)CCCC(c1c(Cl)cccc1C(F)(F)F)=C2c1ccc(C=C2CN(CCCF)C2)cc1` [Compound 16, 8-(2-chloro-6-(trifluoromethyl)phenyl)-9-(4-((1-(3-fluoropropyl)azetidin-3-ylidene)methyl)phenyl)-6,7-dihydro-5H-benzo[7]annulene-3-carboxylic acid], the “% Degradation At 0.3 μM” value turned out to be 92% and the IC50 worked out at 0.3 nM.
For `O=C(O)c1ccc2c(c1)CCCC(c1cccc(F)c1OC(F)F)=C2c1ccc(C=C2CN(CCCF)C2)cc1` [Compound 33, 8-(2-(difluoromethoxy)-3-fluorophenyl)-9-(4-((1-(3-fluoropropyl)azetidin-3-ylidene)methyl)phenyl)-6,7-dihydro-5H-benzo[7]annulene-3-carboxylic acid], the “% Degradation At 0.3 μM” value stood at 91% and half-maximal inhibition (IC50) required 0.3 nM.
On the same counts, the results for `C[C@H]1CC[C@H](C2=C(c3ccc(C=C4CN(CCCF)C4)cc3)c3ccc(C(=O)O)cc3CCC2)CC1` [Compound 56, 9-(4-((1-(3-fluoropropyl)azetidin-3-ylidene)methyl)phenyl)-8-(trans-4-methylcyclohexyl)-6,7-dihydro-5H-benzo[7]annulene-3-carboxylic acid] are 92% and 0.7 nM.
Take `COc1cccc(C)c1C1=C(c2ccc(C=C3CN(CCCF)C3)cc2)c2ccc(C(=O)O)cc2CCC1` [Compound 4, 9-(4-((1-(3-fluoropropyl)azetidin-3-ylidene)methyl)phenyl)-8-(2-methoxy-6-methylphenyl)-6,7-dihydro-5H-benzo[7]annulene-3-carboxylic acid]: the “% Degradation At 0.3 μM” value is 90% and the IC50 came to 1.1 nM.
With `O=C(O)c1ccc2c(c1)CCCC(C1CC13CCC3)=C2c1ccc(C=C2CN(CCCF)C2)cc1` (single isomer, unassigned) [Compound 35, 9-(4-((1-(3-fluoropropyl)azetidin-3-ylidene)methyl)phenyl)-8-(spiro[2.3]hexan-1-yl)-6,7-dihydro-5H-benzo[7]annulene-3-carboxylic acid], the “% Degradation At 0.3 μM” value was determined as 91% and the DC50 is 0.3 nM.
For the molecule `O=C(O)c1ccc2c(c1)CCCC(c1ccccc1CF)=C2c1ccc(C=C2CN(CCCF)C2)cc1` [Compound 32, 8-(2-(fluoromethyl)phenyl)-9-(4-((1-(3-fluoropropyl)azetidin-3-ylidene)methyl)phenyl)-6,7-dihydro-5H-benzo[7]annulene-3-carboxylic acid], the “% Degradation At 0.3 μM” value is reported as 91% and it took 0.3 nM to reach half-maximal inhibition (IC50).
As to `O=C(O)c1ccc2c(c1)CCCC(c1c(F)cccc1C(F)(F)F)=C2c1ccc(C=C2CN(CCCF)C2)cc1` [Compound 20, 8-(2-fluoro-6-(trifluoromethyl)phenyl)-9-(4-((1-(3-fluoropropyl)azetidin-3-ylidene)methyl)phenyl)-6,7-dihydro-5H-benzo[7]annulene-3-carboxylic acid], the “% Degradation At 0.3 μM” value amounted to 94% and the IC50 came out at 0.6 nM.
`O=C(O)c1ccc2c(c1)CCCC(c1ccc(F)c(F)c1C(F)(F)F)=C2c1ccc(C=C2CN(CCCF)C2)cc1` [Compound 2, 8-(3,4-difluoro-2-(trifluoromethyl)phenyl)-9-(4-((1-(3-fluoropropyl)azetidin-3-ylidene)methyl)phenyl)-6,7-dihydro-5H-benzo[7]annulene-3-carboxylic acid]: the “% Degradation At 0.3 μM” value was 90% and the IC50 amounted to 1 nM.

(Values after patent US20250255848A1, “SUBSTITUTED 6,7-DIHYDRO-5H-BENZO[7]ANNULENE DERIVATIVES, PROCESSES FOR THEIR PREPARATION AND THERAPEUTIC USES THEREOF” (SANOFI, priority 2022, published 2025).)
